Test [1] has as its system cultured cerebellar granule cells. Put plainly: Veratridine induced toxicity in neuronal cultures (MTT assay). The conditions noted are these: Mus musculus. (Tetrazolium assays rely on reduction of a dye to a coloured formazan, in cell work by metabolically active cells.)
Procedure: Veratridine Induced Toxicity in Neuronal Cultures
The cells were pre-incubated with drug for 30 minutes prior to a 60 minute exposure to veratridine (100 μM). Drug remained in the medium during exposure to veratridine. Cell viability was assessed at 18 hours by MTT assay.
Test [2] concerns murine neocortical neurones. Put plainly: NMDA-induced toxicity in neuronal cultures (MTT assay). The class given is cell-based. The conditions noted are these: Mus musculus, NMDA 600 μM, 1 h, compound added 30 min prior, cultures at 8 days in vitro, read-out: EC50 for inhibition of NMDA-induced toxicity. As to the method: Assay for NMDA-induced Toxicity in Neuronal Cultures
Neuronal cell death was assessed using a 3-(4,5-dimethylthiazol-2-yl)-2,5-diphenyltetrazoliurn bromide (MTT) assay in which NMDA-induced cellular changes are reflected as altered mitochondrial activity (Ankarcrona et al., 1995), as estimated by the formation of a formazan dye, which is measured spectrophotometrically. The procedure employed is essentially that of Roehlm et al. (1991) with minor modifications as previously described elsewhere in work from our laboratories Larm et al. (1996).
Primary cultures of murine neocortical neurones were established as described elsewhere (Larm et al., 1996). The effects of experimental compounds were tested in the cultures at 8 days in vitro. Exposure to NMDA (600 μM, 1 h) and other compounds was performed in an humidified incubator (5% CO2, 8% O2) at 37° C. in anti-oxidant free medium with compounds under evaluation being added 30 min prior to NMDA. For these conditions the culture medium was modified by omitting the following components: D,L- -tocopherol, D,L- -tocopherol acetate, catalase, superoxide dismutase and L-glutamine. Other details are described in Larm et al. (1996). Absorbence was read at 570 nm using a Ceres UV900 microplate reader. Control cultures were included in each experiment containing either vehicle alone or vehicle plus compound. […]

In test [3] the target is NMDA/polyamine sites (polyamine-sensitive [3H]-ifenprodil binding, rat cerebral cortex membranes) (Rattus norvegicus, UniProt P35439+Q00960). Description: NMDA/polyamine site [3H]-ifenprodil binding assay. The conditions noted are these: [3H]-ifenprodil 4 nM, rat cerebral cortex homogenate. An excerpt: Ifenprodil and eliprodil have been reported as antiischaemic agents (Gotti et al., 1988) and both compounds have been reported to associate with the polyamine sensitive site of the NMDA receptor complex (Carter et al., 1989 and 1990; Reynolds et al., 1989; and Robinson et al., 1990). […] These agents bind independently of the NMDA ion channel (Carter et al., 1991; Reynolds et al., 1989), appear not to cause behavioural effects (Carter et al., 1991), and may target specific heteromeric NMDA receptors (Williams, 1993; Nicola et al., 1994) uniquely distributed in forebrain regions (Standaert et al., 1994) affected in ischaemia and head trauma. […] Accordingly, compounds of the present invention are capable of binding to the NMDA receptor complex and providing a neuroprotective effect, or otherwise providing benefit in other conditions related to NMDA receptors.
Sequence of NMDA/polyamine sites (polyamine-sensitive [3H]-ifenprodil binding, rat cerebral cortex membranes) (Q00960 27-1482, other chains not shown): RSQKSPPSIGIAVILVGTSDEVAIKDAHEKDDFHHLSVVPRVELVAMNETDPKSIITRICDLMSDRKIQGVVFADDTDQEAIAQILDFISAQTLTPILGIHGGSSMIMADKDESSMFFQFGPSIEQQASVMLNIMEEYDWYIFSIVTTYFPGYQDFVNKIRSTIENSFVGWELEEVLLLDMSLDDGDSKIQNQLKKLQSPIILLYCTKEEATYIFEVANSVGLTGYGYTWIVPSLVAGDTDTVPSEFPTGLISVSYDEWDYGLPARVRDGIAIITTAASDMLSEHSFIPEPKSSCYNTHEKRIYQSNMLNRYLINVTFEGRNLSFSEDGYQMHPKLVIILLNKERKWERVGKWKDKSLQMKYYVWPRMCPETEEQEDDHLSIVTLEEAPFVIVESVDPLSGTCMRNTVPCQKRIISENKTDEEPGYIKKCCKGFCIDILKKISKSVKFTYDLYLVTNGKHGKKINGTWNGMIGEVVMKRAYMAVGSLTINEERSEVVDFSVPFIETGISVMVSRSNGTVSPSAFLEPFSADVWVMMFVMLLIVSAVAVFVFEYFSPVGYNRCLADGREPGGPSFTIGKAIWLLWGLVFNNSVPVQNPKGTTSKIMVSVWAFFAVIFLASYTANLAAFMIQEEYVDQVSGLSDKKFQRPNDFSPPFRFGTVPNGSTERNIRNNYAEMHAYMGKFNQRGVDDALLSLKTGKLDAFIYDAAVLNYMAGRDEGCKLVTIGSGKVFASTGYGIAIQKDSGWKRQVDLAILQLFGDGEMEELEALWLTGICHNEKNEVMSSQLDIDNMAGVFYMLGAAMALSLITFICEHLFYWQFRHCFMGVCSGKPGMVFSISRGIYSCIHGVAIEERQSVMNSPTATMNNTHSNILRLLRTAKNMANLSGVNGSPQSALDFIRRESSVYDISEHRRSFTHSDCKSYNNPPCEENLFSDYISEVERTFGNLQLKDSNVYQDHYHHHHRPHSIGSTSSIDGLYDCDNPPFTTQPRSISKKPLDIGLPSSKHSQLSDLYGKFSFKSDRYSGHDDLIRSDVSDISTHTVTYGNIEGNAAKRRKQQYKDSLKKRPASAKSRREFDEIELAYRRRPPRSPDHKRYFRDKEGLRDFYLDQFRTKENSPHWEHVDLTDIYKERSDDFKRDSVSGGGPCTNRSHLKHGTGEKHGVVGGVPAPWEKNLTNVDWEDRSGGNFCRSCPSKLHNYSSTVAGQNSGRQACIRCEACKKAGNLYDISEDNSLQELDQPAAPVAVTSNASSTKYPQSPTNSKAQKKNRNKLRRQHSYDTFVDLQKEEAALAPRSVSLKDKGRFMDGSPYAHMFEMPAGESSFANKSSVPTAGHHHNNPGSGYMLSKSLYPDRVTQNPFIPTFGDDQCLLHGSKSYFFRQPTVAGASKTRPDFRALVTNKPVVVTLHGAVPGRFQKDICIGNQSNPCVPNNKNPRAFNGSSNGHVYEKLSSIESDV
Briefly, crude membrane suspensions containing 10% rat cerebral cortex were prepared in aqueous 50 mM Tris-HCl buffer (pH 7.4, 4° C.), using a Polytron homogeniser.
Nonspecific binding was determined using spermine (10 μM).
The sigma receptor ligand 3PPP(+)-3-(3-hydroxyphenyl)-N-propyl-piperidine (100 μM) was included in all tubes to block binding to sigma receptors. […] Filterpapers were collected, combined with scintillant and bound radioactivity determined using a Packard Scintillation counter.

A word on the EC50: it is the concentration that produces a half-maximal response. In general, IC50 refers to the concentration that gives 50% inhibition. For orientation: Ki means a measure of affinity in units of concentration, obtained from inhibition or displacement. A lower Ki goes with tighter binding. As to `OC(Cc1cc(N2CCCC2)nc(N2CCCC2)n1)c1cccc(OC(F)(F)F)c1` (stereo not shown) [Compound 17, 6-[2-hydroxy-2-(3-trifluoromethoxyphenyl)ethyl]-2,4-di-N-pyrrolidinylpyrimidine], the concentration giving a half-maximal response (EC50) in test [1] and in test [2] was 1700 nM throughout. In test [3] (2 h at 4° C., 3PPP 100 μM to block sigma sites), this compound registered an IC50 of 4.33 ± 1.56 µM. In addition, the Ki in test [3] (competition curves analysed with Radlig) is 1400 ± 47 nM.
